Experimental data from ChEMBL document CHEMBL3853319, “Tyrosine Kinase Inhibitors. 20. Optimization of Substituted Quinazoline and Pyrido[3,4-d]pyrimidine Derivatives as Orally Active, Irreversible Inhibitors of the Epidermal Growth Factor Receptor Family” (J Med Chem, 2016).

Legend:
[1] = Half life in Beagle dog at 50 mg/kg/day, po by LC/MS analysis; type: ADME, organism-based, Canis lupus familiaris; conditions: in vivo
[2] = Half life in overnight fasted cynomolgus monkey at 25 mg/kg/day, po by LC/MS analysis; type: ADME, organism-based, Macaca fascicularis; conditions: in vivo
[3] = Half life in overnight fasted cynomolgus monkey at 5 mg/kg/day, iv by LC/MS analysis; type: ADME, organism-based, Macaca fascicularis; conditions: in vivo
[4] = Half life in human plasma at 30 to 60 mg; type: ADME, cell-free
in vivo [5] = conditions: Sprague-Dawley, rat, po, 50 mg/kg
in vivo [6] = conditions: cynomolgus monkey, po, 25 mg/kg
in vivo [7] = conditions: Sprague-Dawley, rat, po, 50 mg/kg; remark: listed apart in the source
in vivo [8] = conditions: beagle, dog, po, 50 mg/kg
in vivo [9] = conditions: cynomolgus monkey, po, 25 mg/kg; remark: listed apart in the source
in vivo [10] = conditions: Sprague-Dawley, rat, iv, 5 mg/kg
in vivo [11] = conditions: beagle, dog, iv, 5 mg/kg
in vivo [12] = conditions: cynomolgus monkey, iv, 5 mg/kg
in vivo [13] = conditions: Sprague-Dawley, rat, iv, 5 mg/kg; remark: listed apart in the source
in vivo [14] = conditions: beagle, dog, iv, 5 mg/kg; remark: listed apart in the source
in vivo [15] = conditions: Sprague-Dawley, rat, po, 50 mg/kg; remark: listed apart in the source
in vivo [16] = conditions: Sprague-Dawley, rat, iv, 5 mg/kg; remark: listed apart in the source
in vivo [17] = conditions: beagle, dog, iv, 5 mg/kg; remark: listed apart in the source
in vivo [18] = conditions: Sprague-Dawley, rat, po, 50 mg/kg; remark: listed apart in the source
in vivo [19] = conditions: cynomolgus monkey, po, 25 mg/kg; remark: listed apart in the source
in vitro [20] = conditions: rat, liver microsomes
in vitro [21] = conditions: human, liver microsomes
in vitro [22] = conditions: rat, hepatocytes
in vitro [23] = conditions: human, hepatocytes
[24] = Terminal half life in patient plasma with advanced solid tumor administered at 75 mg; type: ADME; conditions: human, read-out: beta t1/2 (converted)

Q: Which results are given for COc1cc2ncnc(Nc3ccc(F)c(Cl)c3)c2cc1NC(=O)/C=C/CN1CCCCC1 [DACOMITINIB ANHYDROUS]?
A: half-life [1]: 20.9 h; half-life [2]: 12.1 h; half-life [3]: 5.7 h; half-life [4]: 59 h; Cmax at 144 h (in vivo [5]): 630 ng/mL; Cmax at 144 h (in vivo [6]): 220 ng/mL; AUC at 144 h (in vivo [7]): 20500 ng·h/mL; AUC at 144 h (in vivo [8]): 25200 ng·h/mL; AUC at 144 h (in vivo [9]): 5400 ng·h/mL; AUC at 144 h (in vivo [10]): 2100 ng·h/mL; clearance at 144 h (in vivo [11]): 24.4 mL/min/kg; clearance at 144 h (in vivo [12]): 44.1 mL/min/kg; Vd at 144 h (in vivo [13]): 34.2 L/kg; Vd at 144 h (in vivo [14]): 28 L/kg; half-life (in vivo [15]): 19.4 h; half-life (in vivo [16]): 9.8 h; half-life (in vivo [17]): 15.9 h; bioavailability at 144 h (in vivo [18]): 80%; bioavailability at 144 h (in vivo [19]): 56%; half-life at 5 µM (in vitro [20]): > 0.667 h; half-life at 5 µM (in vitro [21]): > 0.667 h; half-life at 1 µM (in vitro [22]): 2.38 h; half-life at 1 µM (in vitro [23]): 4.15 h

Q: Which half-life at 5 µM (in vitro [20]) does the source give for COc1cc2ncnc(Nc3ccc(F)c(Cl)c3)c2cc1OCCCN1CCOCC1 [GEFITINIB] here?
A: > 0.667 h

Q: What about the half-life at 5 µM (in vitro [21]) of the same compound?
A: > 0.667 h

Q: What about the half-life at 1 µM (in vitro [22]) of the same compound?
A: 1.68 h

Q: And the half-life at 1 µM (in vitro [23])?
A: 3.75 h

Q: For CCOc1cc2ncc(C#N)c(Nc3ccc(F)c(Cl)c3)c2cc1NC(=O)/C=C/CN(C)C [PELITINIB], which half-life [24] is on record?
A: 21.7 h
